Laboratory results reported in article PMC10294390 (BMC Complementary Medicine and Therapies, 2023).

Assays:
[1] = tested on: CRL1554 normal human fibroblast cells; experiment: MTT assay, cytotoxicity of PPCs on normal fibroblasts; conditions: PPCs 20-160 µM, 72 h
Experimental: The cytotoxicity of a panel of 14 PPCs (Kmf, Cur, Que, Rsv, HHG, Hsp, BetA, IC3, Cmr, Sul, Irt, Lyc, Sil, and Snn) on CRL1554 normal human fibroblast cells was determined using the MTT assay [16]. CRL1554 cells were seeded (27 × 10^3 cells/well) into 96-well flat-bottomed plates and incubated at 37 °C for 18 h. Subsequently, the medium was removed, and the cells were washed with Hanks balanced salt solution (HBSS; 100 µl/well), and treated with various concentrations of PPCs (20, 40, 60, 80, 100, 120, 140 and 160 µM) for 72 h. The cells were then washed twice with HBSS, and 100 μl medium with 20 µl (5 mg/ml) MTT solution in PBS was added to each well and incubated at 37 °C for 4 h. The supernatants were aspirated, and 200 μL of dimethyl sulfoxide (DMSO) was added to dissolve the formazan crystals. Finally, the absorbance was measured using a multiwell spectrophotometer at two wavelengths (λ, 492 and 570 nm).

[2] = tested on: SW1116 human colon cancer cell line; experiment: MTT assay, single and schedule-dependent combined treatment; assay type: cell-based; conditions: Homo sapiens, SW 1116, PPC alone, MTT, Fig. 1B
Experimental: (§1) The plates were washed, and PPCs [Cur, Kmf, or Que (60 or 120 µM), or Rsv (40 or 80 µM)] were added, followed by incubation at 37 °C for 48 h. For inverted sequential treatment, PPC [Cur, Kmf, or Que (60 or 120 µM), or Rsv (40 or 80 µM)] was added and incubated at 37 °C for 24 h. […] Cell growth was monitored as previously described.

[3] = tested on: SW837 human rectum cancer cell line; experiment: as above; assay type: cell-based; conditions: PPC alone, MTT, Fig. 1C; for IC50: Homo sapiens, SW837, SW837, read-out: IC50; for cytotoxicity mean: SW837
Experimental: as §1

[4] = tested on: SW1116 cells; experiment: Cell cycle analysis by flow cytometry (PI); assay type: cell-based, human; conditions: 72 h
Experimental: (§2) The cells were subsequently processed using a DNA-prep kit and DNA-Prep EPICS workstation. The cells were treated with a non-ionic detergent to permeabilize the cell membrane, followed by propidium iodide (PI) and RNase, and incubated at 15–20 °C for 15 min. The cells were resuspended in binding buffer at a concentration of 3–10 × 10^6 cells/ml for optimal staining. Fluorescence was measured using a flow cytometer (Beckman Coulter, Inc.), and the percentage of cells in the different phases of the cell cycle was calculated using the Phoenix statistical software package, Advanced DNA cell cycle software (Phoenix Flow System).

[5] = tested on: SW837 cells; experiment: Cell cycle analysis by flow cytometry (PI); assay type: cell-based, human; conditions: 72 h
Experimental: as §2

[6] = tested on: SW1116 cells; experiment: Annexin V-FITC/PI double staining, flow cytometry; assay type: cell-based, human; conditions: SW1116, 72 h
Experimental: (§3) The levels of cell surface phosphatidylserine were determined to monitor the type of cell death and the kinetics of apoptosis. The CRC cell lines SW1116 and SW837 were seeded (2.5 × 10^5 cells/well) into 24-well plates and incubated in a non-CO2 incubator at 37 °C for 18 h. […] The cells were subsequently washed twice with HBSS and harvested using trypsin. Finally, the cells were double-stained using the Annexin V-FITC-Flous staining kit, according to the manufacturer’s instructions (Roche Diagnostic GmbH). Annexin V-Flous labelling solution containing Annexin V-FITC and PI (100 µl) was added to both the treated and control cell groups and incubated at 15–20 °C for 15 min. The cells (1 × 10^6 cells/ml) were then resuspended in binding buffer, and fluorescence was monitored using flow cytometry (FC500; Beckman Coulter, Inc.).

[7] = tested on: SW837 cells; experiment: Annexin V-FITC/PI double staining, flow cytometry; assay type: cell-based, human; conditions: SW837, 72 h
Experimental: as §3

[8] = tested on: SW1116 cells; experiment: DNA fragmentation assay; assay type: cell-based, human; conditions: Sora 5 µM, PPC 200 and 400 µM, simultaneous combinations, 72 h, Fig. 8A, C
Experimental: (§4) Induction of apoptosis was monitored using a DNA fragmentation assay following the manufacturer’s instructions (Apoptotic DNA Ladder Detection kit; Abcam). […] Cells were subsequently incubated at 37 °C for 72 h. The cells were then trypsinized, harvested, washed, pelleted, and lysed using Tris–EDTA (TE) lysis buffer (35 µl). Enzyme A solution (RNase; 5 µl) was added, followed by incubation at 37 °C for 10 min. Enzyme B solution (proteinase; 5 µl) was then added, followed by incubation at 50 °C for 30 min. Ammonium acetate solution (5 µl) and isopropanol (50 µl) were added to each sample and incubated at -20 °C for 10 min. Finally, the DNA was pelleted, washed with 0.5 ml 70% methanol, and dissolved in 30 µl DNA suspension buffer. The extracted DNA samples were loaded onto a 1.2% agarose gel, along with a loading marker (1 kb DNA ladder), and subjected to electrophoresis, using a running buffer containing 1.35 µg/ml ethidium bromide at 5 V/cm for 1 h. Ethidium bromide-stained DNA bands were visualized using transillumination with UV light.

[9] = tested on: SW837 cells; experiment: DNA fragmentation assay; assay type: cell-based, human; conditions: Sora 5 µM, PPC 200 and 400 µM, sequential combinations, 72 h, Fig. 8B, D
Experimental: as §4

[10] = tested on: SW1116 and SW837 cells; experiment: Mitochondrial membrane potential (MMP) analysis, MitoNIR dye, flow cytometry; assay type: cell-based, human; conditions: Cur 400 µM alone; 72 h; cell line not stated
Experimental: The inner mitochondrial membrane is rich in negatively charged glycoproteins and is therefore negatively charged. The accumulation of high concentrations of protons outside of the inner membrane establishes the transmembrane potential. The MMP was monitored using the NIR Mitochondrial Membrane Potential Assay kit (Abcam) according to the manufacturer’s protocol. Briefly, cells (2.5 × 10^5 cells/well) were seeded into 24-well plates and incubated in a non-CO2 incubator at 37 °C for 18 h. […] MitoNIR Dye (200X; 5 µl/ml) was added to each sample, followed by incubation at 37 °C for 15–30 min. The cells were subsequently pelleted and resuspended in 1 ml assay buffer. Flow cytometry, in the FL4 channel (λExcitation/λEmission, 635/660 nm), was used to monitor the fluorescence intensity.

[11] = tested on: DLD-1 colon tumor model; set-up: method as in PMID 14692718; conditions: cited from earlier work

## C=C(C)[C@@H]1CC[C@]2(C(=O)O)CC[C@]3(C)[C@H](CC[C@@H]4[C@@]5(C)CC[C@H](O)C(C)(C)[C@@H]5CC[C@]43C)[C@@H]12 [BetA, betulinic acid]
[1]
  cytotoxicity: 69–97.5%

## O=c1ccc2ccccc2o1 [Cmr, coumarin]
[1]
  cytotoxicity: 7.4–11.34%

## COc1cc(/C=C/C(=O)CC(=O)/C=C/c2ccc(O)c(OC)c2)ccc1O [Cur, curcumin]
[2]
  IC50: 60 µM
[3]
  IC50: 150 µM
[4]; PPC 200 µM alone
  %G0/G1 (cells in G0/G1 phase): 49.1%
  %G2/M (cells in G2/M phase): 13.6%
  %S (cells in S phase): 37.1%
[4]; PPC 400 µM alone
  %G0/G1 (cells in G0/G1 phase): 28.5%
  %G2/M (cells in G2/M phase): 11.3%
  %S (cells in S phase): 60%
  %SubG1 (cells in sub G1): 12%
[5]; PPC 200 µM alone
  %G0/G1 (cells in G0/G1 phase): 49.1%
  %G2/M (cells in G2/M phase): 6.2%
  %S (cells in S phase): 44.6%
  %SubG1 (cells in sub G1): 14.7%
[5]; PPC 400 µM alone
  %G0/G1 (cells in G0/G1 phase): 58.1%
  %G2/M (cells in G2/M phase): 2.4%
  %S (cells in S phase): 39.4%
  %SubG1 (cells in sub G1): 2.9%
[6]; PPC 200 µM alone
  B1, percentage of necrotic cells: 5.9%
  B2, percentage of late apoptotic cells: 11.5%
  B4, percentage of early apoptotic cells: 4.6%
[6]; PPC 400 µM alone
  B1, percentage of necrotic cells: 18.2%
  B2, percentage of late apoptotic cells: 35.2%
  B4, percentage of early apoptotic cells: 3.8%
[7]; PPC 200 µM alone
  B1, percentage of necrotic cells: 60.9%
  B2, percentage of late apoptotic cells: 26.6%
  B4, percentage of early apoptotic cells: 0.3%
[7]; PPC 400 µM alone
  B1, percentage of necrotic cells: 67.9%
  B2, percentage of late apoptotic cells: 32.3%
  B4, percentage of early apoptotic cells: 0.0%
[8]
  induction of apoptosis as indicated by DNA fragmentation: marked induction of apoptosis
[9]
  DNA fragmentation: increased levels of DNA fragmentation
[10]
  change in MMP (shift of MitoNIR red fluorescence): no change in MMP
[1]
  cytotoxicity: 0.0%
[1]; listed as curcumin
  cytotoxicity: ≤ 20%

## COC(=O)C[C@](O)(CCCC(C)(C)O)C(=O)O[C@@H]1C(OC)=C[C@]23CCCN2CCc2cc4c(cc2[C@H]13)OCO4 [HHG, homoharringtonine]
[1]
  cytotoxicity: 99–100%

## COc1ccc([C@@H]2CC(=O)c3c(O)cc(O)cc3O2)cc1O [Hsp, hesperetin]
[1]
  cytotoxicity: 0.0–4.4%

## OCc1c[nH]c2ccccc12 [I3C, indol-3-carbinol]
[1]
  cytotoxicity: 0.2–9.2%

## CCc1c2c(nc3ccc(OC(=O)N4CCC(N5CCCCC5)CC4)cc13)-c1cc3c(c(=O)n1C2)COC(=O)[C@]3(O)CC [Irt, irinotecan]
[11]
  delay of tumor cell growth: 71%
[1]
  cytotoxicity: 44.9–81.9%

## O=c1c(O)c(-c2ccc(O)cc2)oc2cc(O)cc(O)c12 [Kmf, kaempferol]
[2]
  IC50: 100 µM
[3]
  cytotoxicity mean: 21 ± 3.5%
[5]; PPC 200 µM alone
  %G0/G1 (cells in G0/G1 phase): 60.4%
  %G2/M (cells in G2/M phase): 5.9%
  %S (cells in S phase): 33.6%
  %SubG1 (cells in sub G1): 1.3%
[5]; PPC 400 µM alone
  %G0/G1 (cells in G0/G1 phase): 59.9%
  %G2/M (cells in G2/M phase): 6.3%
  %S (cells in S phase): 33.6%
  %SubG1 (cells in sub G1): 2.7%
[7]; PPC 200 µM alone
  B1, percentage of necrotic cells: 4.9%
  B2, percentage of late apoptotic cells: 20.5%
  B4, percentage of early apoptotic cells: 2.5%
[7]; PPC 400 µM alone
  B1, percentage of necrotic cells: 36.8%
  B2, percentage of late apoptotic cells: 44.4%
  B4, percentage of early apoptotic cells: 2.8%
[9]
  DNA fragmentation: increased levels of DNA fragmentation
[1]
  cytotoxicity: 0.0–1.1%
[1]; listed as kaempferol
  cytotoxicity: ≤ 20%

## CC(C)=CCC/C(C)=C/C=C/C(C)=C/C=C/C(C)=C/C=C/C=C(C)/C=C/C=C(C)/C=C/C=C(\C)CCC=C(C)C [Lyp, lycopene]
[1]
  cytotoxicity: 39.7–66.6%

## O=c1c(O)c(-c2ccc(O)c(O)c2)oc2cc(O)cc(O)c12 [Que, quercetin]
[2]
  IC50: 160 µM
[3]
  cytotoxicity mean: 19 ± 3%
[4]; PPC 200 µM alone
  %G0/G1 (cells in G0/G1 phase): 39.6%
  %G2/M (cells in G2/M phase): 15.0%
  %S (cells in S phase): 45.0%
[4]; PPC 400 µM alone
  %G0/G1 (cells in G0/G1 phase): 38.5%
  %G2/M (cells in G2/M phase): 14.1%
  %S (cells in S phase): 47.2%
  %SubG1 (cells in sub G1): 8.4%
[6]; PPC 200 µM alone
  B1, percentage of necrotic cells: 4.5%
  B2, percentage of late apoptotic cells: 24.5%
  B4, percentage of early apoptotic cells: 4.2%
[6]; PPC 400 µM alone
  B1, percentage of necrotic cells: 31.1%
  B2, percentage of late apoptotic cells: 34.1%
  B4, percentage of early apoptotic cells: 0.8%
[8]
  induction of apoptosis as indicated by DNA fragmentation: marked induction of apoptosis
[1]
  cytotoxicity: 0.0–16.2%
[1]; listed as quercetin
  cytotoxicity: ≤ 20%

## Oc1ccc(/C=C/c2cc(O)cc(O)c2)cc1 [Rsv, resveratrol]
[2]
  IC50: 70 µM
[3]
  IC50: 140 µM
[1]
  cytotoxicity: 0.0–3.3%
[1]; listed as resveratrol
  cytotoxicity: ≤ 20%

## COc1cc(C2Oc3cc([C@H]4Oc5cc(O)cc(O)c5C(=O)[C@@H]4O)ccc3OC2CO)ccc1O (stereo partly shown) [Sin, silibinin]
[1]
  cytotoxicity: 0.0–5.54%

## CC1=C(CC(=O)O)c2cc(F)ccc2/C1=C\c1ccc([S+](C)[O-])cc1 (stereo not shown) [Sul, sulanidac]
[1]
  cytotoxicity: 38.94–98%
